“And” between values parts separate entries of the source, which are not always exact repeats. Equal entries are not always repeated. Blank lines part the entries; values can stand above or below the compound they belong to. Where no end group is shown, it is not given here.
Assays:
[1] = target: T1, hSIRT1-143 (Homo sapiens, UniProt Q96EB6); experiment: Differential scanning fluorimetry (SYPRO Orange) thermal stability of SIRT1 complexes; type: binding; details: 200 μM resveratrol
T1 construct: Schematic of SIRT1-143 design, consisting of residues 143–512 and the region 641–665; SUMO (smt3) (N, cleaved yes); His tag (N, cleaved yes); made in house; host or cells: E. coli BL21 (DE3)
T1 sequence (Q96EB6 143-512 limits assumed): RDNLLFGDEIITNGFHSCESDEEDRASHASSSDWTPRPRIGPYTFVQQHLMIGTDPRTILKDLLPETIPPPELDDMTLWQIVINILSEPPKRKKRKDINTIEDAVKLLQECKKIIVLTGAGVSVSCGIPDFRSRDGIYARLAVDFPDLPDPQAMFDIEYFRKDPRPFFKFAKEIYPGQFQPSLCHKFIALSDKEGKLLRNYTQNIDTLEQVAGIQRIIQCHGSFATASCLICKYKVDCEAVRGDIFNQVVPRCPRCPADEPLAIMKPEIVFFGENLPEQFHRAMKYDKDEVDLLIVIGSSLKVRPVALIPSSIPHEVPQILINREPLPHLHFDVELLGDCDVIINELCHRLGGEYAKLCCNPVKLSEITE
T1 sequence (Q96EB6 641-665 limits assumed): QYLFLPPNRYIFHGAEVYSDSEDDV
Description: Differential Scanning Fluorimetry experiments were performed in a 384-well plate using a qTOWER real-time PCR thermal cycler (Analytik Jena). Fluorescence intensity was measured in the TAMRA channel (Ex: 535 nm Em: 580 nm) over a period of 1 h with a 1°C increase temperature ramp per cycle in “Normal” mode. […] 1:100 SYPRO® Orange (Millipore) dye diluted in buffer was also added to each well. All measurements were performed in triplicate, with buffer-only controls containing ADPr, resveratrol, and peptide performed for all conditions. Tma was calculated using the first derivative method and fitting a Lorentzian distribution to the first derivative curve (Tma = center of curve/inflection point) in GraphPad Prism ([Wu et al., 2020]).

[2] = target: T1, hSIRT1-143; experiment: Small angle X-ray scattering (SAXS) of SIRT1 complexes; details: for Rg / Rxs: + 200 μM resveratrol; for Δ Rg / Δ Rxs: + vs - 200 μM resveratrol; on Rg: values in Å; on Rxs: values in Å
Description: SAXS samples were prepared with 40 μM of hSIRT1-143 in storage buffer (50 mM Tris pH 8.0, 150 mM NaCl, 1 mM DTT). All samples contained 640 μM of NAD^+ analog ADPr (adenosine diphosphate ribose) except for the apo SIRT1 sample. Varying concentrations of different peptide substrates (500–5,000 μM) were added to the different samples. The concentration of peptide substrate added was determined based on previous kinetics assays to ensure that SIRT1 is mostly saturated with the peptide.
With an X-ray wavelength of 1.216 Å and a sample-to-detector distance of 2070 mm, the scattering vector, q, varied from 0.01 to 0.45. Where 2θ is the scattering angle, the scattering vector is defined as q = 4π sin θ/λ. The experiments were conducted at a temperature of 20°C. The sample was placed for 10 s with the detector framing at 0.3 s to optimize the signal using the SAXS FrameSlice program (https://bl1231.als.lbl.gov/ran). ATSAS 3.0 Primus software was utilized to plot and analyze the combined SAXS ([Manalastas-Cantos et al., 2021]).

[3] = target: T1, hSIRT1-143; experiment: Differential scanning fluorimetry (SYPRO Orange) thermal stability of SIRT1 complexes; type: binding; details: SIRT1•ADPr•Ac-H3; 200 μM resveratrol; single data set
[4] = target: T1, hSIRT1-143; experiment: Enzyme-coupled continuous SIRT1 deacetylase kinetics assay (Michaelis-Menten); type: biochemical; details: for K M / k cat / k cat/K M: peptide as substrate, without resveratrol
Description: Assays were conducted in accordance with a prior publication ([Smith et al., 2009]). Peptide substrates were 11 or 13-mer peptides with acetylated lysine at the middle residue position, synthesized and purified by Elim BioPharm (Hayward, CA) to a purity of 90%. The following reagents were used in the assay mixtures: 5–640 μM peptide substrate, 640 μM NAD^+, 2 mM MPB-PncA (nicotinamidase), 20 mM phosphate buffer pH 7.6, 3 mM α-ketoglutarate, 1 mM DTT, 0.2 mM NADPH, and 6.7 units of glutamate dehydrogenase. Then, 0.2–1 μM of the SIRT1 enzyme was added to start the reactions. SIRT1 reactions were conducted in a transparent, flat-bottomed, 96-well plate with a final volume of 150 μL per well and read with a BioTek™ Synergy HTX Multimode Reader. […] After SIRT1 was added, absorbance at 340 nm was measured to quantify the rate of NADPH depletion for a duration of 10 min. Initial rates of the reaction were calculated using 6.22 mM^-1cm^-1 as the extinction coefficient for NADPH and fitting the slope of the linear component of the reaction. The initial velocity of the reaction absent the peptide substrate, which served as a background control, was subtracted from the initial velocities of all other reactions. By fitting the initial rate data to the Michaelis-Menten equation in GraphPad Prism, the values for k cat and K M were obtained.

[5] = towards Ac-p53W, 200 μM resveratrol

Compound: ^2ASSSGSK^AcAEFIVG^14 (ASSSGSK(Ac)AEFIVG; UniProt P48729 2-14, looked up, fragment) [Ac-CSNK, 13-mer SIRT1 peptide substrate with acetylated lysine, casein kinase 1 alpha 1 (K8)]
K M [4]: 78 ± 2.2 µM | k cat [4]: 0.06 ± 0.002 s⁻¹ | k cat/K M [4]: 700 ± 200 M⁻¹ s⁻¹

Compound: ^3VRGKAGK^AcGLGKGG^15 [Ac-H4]
K M [4]: 108 ± 5.5 µM | k cat [4]: 0.09 ± 0.006 s⁻¹ | k cat/K M [4]: 1000 ± 400 M⁻¹ s⁻¹

Compound: ^9KSTGGK^AcAPRKQ^19 [Ac-H3]
K M [4]: 121 ± 12.6 µM | k cat [4]: 0.06 ± 0.009 s⁻¹ | k cat/K M [4]: 500 ± 300 M⁻¹ s⁻¹

Results, then the compound that gave them:

decrease of Tma ([1]; SIRT1 in complex with ADPr): 0.2 °C | decrease of melting temperature ([1]; SIRT1•ADPR•Ac-p53W complex): 1 °C | Tma + res ([1]; SIRT1•ADPr): 49.9 ± 0.44 °C | Tma + res ([1]; SIRT1•ADPr•Ac-CSNK): 46.0 ± 0.94 °C | Tma + res ([1]; SIRT1•ADPr•Ac-H4): 46.5 ± 1.49 °C | Tma + res ([1]; SIRT1•ADPr•Ac-p53): 48.2 ± 0.54 °C | Tma + res ([1]; SIRT1•ADPr•Ac-p53W): 49.5 ± 0.46 °C | Tma + res ([1]; apo SIRT1): 49.4 ± 0.48 °C | decrease of Tma ([1]; apo SIRT1): 1.7 °C | Rg ([2]; SIRT1•ADPr): 35.45 Å | Rxs ([2]; SIRT1•ADPr): 14.19 Å | Δ Rg ([2]; SIRT1•ADPr): 1.7% | Δ Rxs ([2]; SIRT1•ADPr): 39.9% | Rg ([2]; SIRT1•ADPr•Ac-CSNK): 33.87 Å | Rxs ([2]; SIRT1•ADPr•Ac-CSNK): 12.67 Å | Δ Rg ([2]; SIRT1•ADPr•Ac-CSNK): 4.9% | Rg ([2]; SIRT1•ADPr•Ac-H3): 35.94 Å | Rxs ([2]; SIRT1•ADPr•Ac-H3): 12.42 Å | Δ Rg ([2]; SIRT1•ADPr•Ac-H3): 3.1% | Rg ([2]; SIRT1•ADPr•Ac-H4): 36.99 Å | Rxs ([2]; SIRT1•ADPr•Ac-H4): 13.7 Å | Δ Rg ([2]; SIRT1•ADPr•Ac-H4): 7.3% | Rg ([2]; SIRT1•ADPr•Ac-p53): 34.92 Å | Rxs ([2]; SIRT1•ADPr•Ac-p53): 14.37 Å | Δ Rg ([2]; SIRT1•ADPr•Ac-p53): 9.2% | Rg ([2]; SIRT1•ADPr•Ac-p53W): 36.91 Å | Rxs ([2]; SIRT1•ADPr•Ac-p53W): 13.86 Å | Δ Rg ([2]; SIRT1•ADPr•Ac-p53W): 9% and 8.9% | Δ Rxs ([2]; SIRT1•ADPr•Ac-p53W): 7% and 6.9% | Rg ([2]; apo SIRT1): 32.26 Å | Rxs ([2]; apo SIRT1): 11.26 Å | Δ Rg ([2]; apo SIRT1): 6.3% | Δ Rxs ([2]; apo SIRT1): 9.7% | Tma + res [3]: 46.3 ± 0.55 °C | increases in K M ([4]; towards Ac-p53, Ac-H4, Ac-H3 and Ac-CSNK, 200 μM resveratrol): 2-6 fold | decrease in K M [4, 5]: 2 fold | increase of overall SIRT1 activity (k cat/K M) [4, 5]: 2 fold | effect on k cat values ([4]; towards any of the peptide substrates, 200 μM resveratrol): did not have significant effects
Compound: Oc1ccc(/C=C/c2cc(O)cc(O)c2)cc1 [resveratrol]

K M [4]: 25 ± 0.2 µM | k cat [4]: 0.08 ± 0.009 s⁻¹ | k cat/K M [4]: 3000 ± 30 M⁻¹ s⁻¹
Compound: ^376STSRHKK^AcLMFKTE^388 (STSRHKK(Ac)LMFKTE; UniProt P04637 376-388, looked up, fragment) [Ac-p53, 13-mer SIRT1 peptide substrate with acetylated lysine, p53(K382)]

K M [4]: 13 ± 1.4 µM | k cat [4]: 0.06 ± 0.001 s⁻¹ | k cat/K M [4]: 5000 ± 500 M⁻¹ s⁻¹
Compound: ^376STSRHKK^AcWMFKTE^389 [Ac-p53W]
